Laboratory results taken from PubChem BioAssay (NCI).
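Protocol summary: plate cells (96-well), add compound at 5 concentrations, incubate 48 h, interpolate endpoints linearly. Definition used: TGI = concentration required for complete inhibition of growth.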

Test system: P388/ADR leukemia
Assay: NCI tumour cell line growth inhibition, 48 h

Row | SMILES | TGI [µM]
1 | COc1cc(C2c3cc4c(cc3[C@@H](Nc3ccc([N+](=O)[O-])cc3)C3COC(=O)[C@H]23)OCO4)cc(OC)c1O (some centres not stated) | 10.7
2 | CCCS(=O)c1nc(COC(=O)NC)c(COC(=O)NC)n1C (configuration not stated) | > 100
